Experiments:
[1] = Cytotoxicity against human multidrug resistant MDR1 overexpressing human KBV1 cells after 4 days by MTT assay; format: functional, cell-based; details: KB-V1, 96 h
[2] = Cytotoxicity against human RPMI8402 cells after 4 days by MTT assay; format: functional, cell-based; details: RPMI 8402, 96 h
P388 [3] = assay: Cytotoxicity against mouse CPT45-resistant topoisomerase 1-deficient P388 cells after 4 days by MTT assay; format: functional, cell-based; details: P388, 96 h
[4] = Cytotoxicity against human camptothecin-resistant CPT-K5 cells after 4 days by MTT assay; format: functional, cell-based; details: CPT-K5, 96 h
[5] = target: T1, DNA topoisomerase 1 (Homo sapiens) (UniProt P11387); assay: Inhibition of human topoisomerase 1 expressed in Escherichia coli assessed as YepG plasmid DNA cleavage
T1 sequence (whole entry): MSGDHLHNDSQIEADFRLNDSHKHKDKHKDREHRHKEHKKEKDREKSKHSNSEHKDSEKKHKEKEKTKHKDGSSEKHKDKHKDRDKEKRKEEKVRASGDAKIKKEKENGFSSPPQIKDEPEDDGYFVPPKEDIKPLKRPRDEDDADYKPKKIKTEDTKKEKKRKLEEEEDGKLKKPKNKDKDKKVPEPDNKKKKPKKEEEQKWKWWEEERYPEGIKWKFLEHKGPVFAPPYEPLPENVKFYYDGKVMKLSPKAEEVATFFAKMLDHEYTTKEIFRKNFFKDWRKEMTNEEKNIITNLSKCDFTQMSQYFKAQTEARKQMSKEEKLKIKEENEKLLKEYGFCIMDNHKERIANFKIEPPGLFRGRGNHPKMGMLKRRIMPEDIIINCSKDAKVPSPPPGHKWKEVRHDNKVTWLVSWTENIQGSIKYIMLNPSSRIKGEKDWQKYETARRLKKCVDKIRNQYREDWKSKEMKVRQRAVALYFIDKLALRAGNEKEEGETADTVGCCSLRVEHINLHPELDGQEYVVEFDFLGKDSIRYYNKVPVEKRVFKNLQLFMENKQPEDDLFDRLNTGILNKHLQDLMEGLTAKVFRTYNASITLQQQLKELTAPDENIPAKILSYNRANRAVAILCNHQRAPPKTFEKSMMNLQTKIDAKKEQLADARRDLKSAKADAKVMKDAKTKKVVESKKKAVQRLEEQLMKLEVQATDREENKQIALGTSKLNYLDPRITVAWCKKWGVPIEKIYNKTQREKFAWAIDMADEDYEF

P388 [6] = assay: Cytotoxicity against mouse P388 cells after 4 days by MTT assay; format: functional, cell-based; details: P388, 96 h
[7] = Cytotoxicity against human multidrug resistant BCRP overexpressing human KBH5.0 cells after 4 days by MTT assay; format: functional, cell-based; details: KBH5.0 cell, 96 h
[8] = Cytotoxicity against human KB3-1 cells after 4 days by MTT assay; format: functional, cell-based; details: KB 3-1, 96 h
MDA-MB-231 [9] = assay: Antitumor activity against human MDA-MB-231 cells xenografted in athymic nude mouse assessed as tumor volume on day 14 at initial dose of 2.0 mg/kg, po qd X 4/week and dose adjustments were made based upon effect or lack of effect on average body weight (29.3 mg/kg total dose); format: functional
MDA-MB-231 [10] = assay: Antitumor activity against human MDA-MB-231 cells xenografted in athymic nude mouse assessed as tumor volume on day 21 at initial dose of 1.0 mg/kg, ip qd X 4/week and dose adjustments were made based upon effect or lack of effect on average body weight (14.6 mg/kg total dose); format: functional; details: route intraperitoneal
MDA-MB-231 [11] = assay: Antitumor activity against human MDA-MB-231 cells xenografted in athymic nude mouse assessed as tumor volume on day 7 at initial dose of 1.0 mg/kg, ip qd X 4/week and dose adjustments were made based upon effect or lack of effect on average body weight (14.6 mg/kg total dose); format: functional; details: route intraperitoneal
MDA-MB-231 [12] = assay: Antitumor activity against human MDA-MB-231 cells xenografted in athymic nude mouse assessed as tumor volume on day 31 at initial dose of 2.0 mg/kg, po qd X 4/week and dose adjustments were made based upon effect or lack of effect on average body weight (29.3 mg/kg total dose); format: functional
MDA-MB-231 [13] = assay: Antitumor activity against human MDA-MB-231 cells xenografted in athymic nude mouse assessed as tumor volume on day 21 at initial dose of 2.0 mg/kg, po qd X 4/week and dose adjustments were made based upon effect or lack of effect on average body weight (29.3 mg/kg total dose); format: functional
MDA-MB-231 [14] = assay: Antitumor activity against human MDA-MB-231 cells xenografted in athymic nude mouse assessed as tumor volume on day 31 at initial dose of 1.0 mg/kg, ip qd X 4/week and dose adjustments were made based upon effect or lack of effect on average body weight (14.6 mg/kg total dose); format: functional; details: route intraperitoneal
MDA-MB-231 [15] = assay: Antitumor activity against human MDA-MB-231 cells xenografted in athymic nude mouse assessed as tumor volume on day 7 at initial dose of 2.0 mg/kg, po qd X 4/week and dose adjustments were made based upon effect or lack of effect on average body weight (29.3 mg/kg total dose); format: functional
MDA-MB-231 [16] = assay: Antitumor activity against human MDA-MB-231 cells xenografted in athymic nude mouse assessed as tumor volume on day 14 at initial dose of 1.0 mg/kg, ip qd X 4/week and dose adjustments were made based upon effect or lack of effect on average body weight (14.6 mg/kg total dose); format: functional; details: route intraperitoneal
MDA-MB-231 [17] = assay: Antitumor activity against human MDA-MB-231 cells xenografted in athymic nude mouse assessed as tumor volume on day 14 at initial dose of 2.0 mg/kg, ip qd X 5/week for 2 weeks and dose adjustments were made based upon effect or lack of effect on average body weight (32.5 mg/kg total dose); format: functional; details: route intraperitoneal
MDA-MB-231 [18] = assay: Antitumor activity against human MDA-MB-231 cells xenografted in athymic nude mouse assessed as tumor volume on day 7 at initial dose of 2.0 mg/kg, ip qd X 5/week for 2 weeks and dose adjustments were made based upon effect or lack of effect on average body weight (32.5 mg/kg total dose); format: functional; details: route intraperitoneal
MDA-MB-231 [19] = assay: Antitumor activity against human MDA-MB-231 cells xenografted in athymic nude mouse assessed as tumor volume on day 14 at initial dose of 3.0 mg/kg, po qd X 5/week for 2 weeks and dose adjustments were made based upon effect or lack of effect on average body weight (72.5 mg/kg total dose); format: functional
MDA-MB-231 [20] = assay: Antitumor activity against human MDA-MB-231 cells xenografted in athymic nude mouse assessed as tumor volume on day 7 at initial dose of 3.0 mg/kg, po qd X 5/week for 2 weeks and dose adjustments were made based upon effect or lack of effect on average body weight (72.5 mg/kg total dose); format: functional
MDA-MB-231 [21] = assay: Antitumor activity against human MDA-MB-231 cells xenografted in athymic nude mouse assessed as tumor volume on day 31 at initial dose of 3.0 mg/kg, po qd X 5/week for 2 weeks and dose adjustments were made based upon effect or lack of effect on average body weight (72.5 mg/kg total dose); format: functional
MDA-MB-231 [22] = assay: Antitumor activity against human MDA-MB-231 cells xenografted in athymic nude mouse assessed as tumor volume on day 21 at initial dose of 3.0 mg/kg, po qd X 5/week for 2 weeks and dose adjustments were made based upon effect or lack of effect on average body weight (72.5 mg/kg total dose); format: functional
MDA-MB-231 [23] = assay: Antitumor activity against human MDA-MB-231 cells xenografted in athymic nude mouse assessed as tumor volume on day 21 at initial dose of 2.0 mg/kg, ip qd X 5/week for 2 weeks and dose adjustments were made based upon effect or lack of effect on average body weight (32.5 mg/kg total dose); format: functional; details: route intraperitoneal
MDA-MB-231 [24] = assay: Antitumor activity against human MDA-MB-231 cells xenografted in athymic nude mouse assessed as tumor volume on day 31 at initial dose of 2.0 mg/kg, ip qd X 5/week for 2 weeks and dose adjustments were made based upon effect or lack of effect on average body weight (32.5 mg/kg total dose); format: functional; details: route intraperitoneal

Row | Structure (SMILES) | IC50 [1] [nM] | IC50 [2] [nM] | IC50 (P388 [3]) [nM] | IC50 [4] [nM] | REC [5] | IC50 (P388 [6]) [nM] | IC50 [7] [nM] | IC50 [8] [nM] | also measured
1 | COc1cc2c(=O)n(CCN(C)CCN(C)C)c3c4cc5c(cc4nnc3c2cc1OC)OCO5 | 180 | 33 | 300 | 2200 | 0.4 | 19 | 250 | 17 | 
2 | COc1cc2c(=O)n(CCNC(CO)(CO)CO)c3c4cc5c(cc4nnc3c2cc1OC)OCO5 | 280 | 65 | 3000 | 5700 | 0.2 | 40 | 400 | 50 | 
3 | CC[C@@]1(O)C(=O)OCc2c1cc1n(c2=O)Cc2cc3ccccc3nc2-1 [CAMPTOTHECIN] |  | 5 | > 10000 |  | 0.2 | 9 |  | 15 | 
4 | COc1cc2c(=O)n(CCN(Cc3ccccc3)C(C)C)c3c4cc5c(cc4nnc3c2cc1OC)OCO5 | 75 | 45 | 2300 | 3300 | 0.5 | 21 | 40 | 16 | 
5 | COc1cc2c(=O)n(CCn3ccnc3)c3c4cc5c(cc4nnc3c2cc1OC)OCO5 | 3300 | 400 | > 10000 | > 10000 | 0.1 | 190 | 3300 | 380 | 
6 | COc1cc2c(=O)n(CCN(C)C)c3c4cc5c(cc4nnc3c2cc1OC)OCO5 | 4 | 2 | 230 | 740 | 0.3 | 2 | 4 | 5 | 
7 | COc1cc2c(=O)n(CCO)c3c4cc5c(cc4nnc3c2cc1OC)OCO5 | 18 | 13 | 700 | 1300 | 0.3 | 12 | 55 | 10 | 
8 | COc1cc2c(=O)n(CCNC(C)C)c3c4cc5c(cc4nnc3c2cc1OC)OCO5 | 7 | 3 | 110 | 300 | 0.08 | 2 | 2 | 0.5 | Activity (MDA-MB-231 [9]): 92 mm3; Activity (MDA-MB-231 [10]): 150 mm3; Activity (MDA-MB-231 [11]): 72 mm3; Activity (MDA-MB-231 [12]): 253 mm3; Activity (MDA-MB-231 [13]): 185 mm3; Activity (MDA-MB-231 [14]): 231 mm3; Activity (MDA-MB-231 [15]): 82 mm3; Activity (MDA-MB-231 [16]): 112 mm3
9 | COc1cc2c(=O)n(CCN(C)Cc3ccccc3)c3c4cc5c(cc4nnc3c2cc1OC)OCO5 | 85 | 40 | 2800 | > 10000 | 0.4 | 25 | 40 | 35 | 
10 | CNCCn1c(=O)c2cc(OC)c(OC)cc2c2nnc3cc4c(cc3c21)OCO4 | 23 | 3 | 200 | 230 | 0.03 | 1 | 18 | 0.7 | Activity (MDA-MB-231 [17]): 129 mm3; Activity (MDA-MB-231 [18]): 146 mm3; Activity (MDA-MB-231 [19]): 113 mm3; Activity (MDA-MB-231 [20]): 116 mm3; Activity (MDA-MB-231 [21]): 177 mm3; Activity (MDA-MB-231 [22]): 144 mm3; Activity (MDA-MB-231 [23]): 109 mm3; Activity (MDA-MB-231 [24]): 104 mm3
11 | COc1cc2c(=O)n(CCN(C)C)c3c4cc5c(cc4ncc3c2cc1OC)OCO5 | 15 | 2 |  | 900 | 0.3 |  | 12 | 5 | 

— ChEMBL document CHEMBL1156616, “Syntheses and biological evaluation of topoisomerase I-targeting agents related to 11-[2-(N,N-dimethylamino)ethyl]-2,3-dimethoxy-8,9-methylenedioxy-11H-isoquino[4,3-c]cinnolin-12-one (ARC-31)” (Bioorg Med Chem, 2008)
